{"source": "patent US4029671A", "about": "“3-[(5-nitro-2-imidazolyl)pyrazol-5-yl]oxamic acid derivatives” (priority 1976, dated 1977)", "format_in_all_cases": "cell-based", "key": {"[1]": {"tested_on": "Actinomyces israelii W855", "test": "Agar dilution susceptibility of anaerobic bacteria (Chart 1)", "details": "Actinomyces israelii, W855, 24 h, read-out: 24 Hr. MIC, agar dilution, 37° C."}, "[2]": {"tested_on": "Clostridium perfringens 81", "test": "microbe, parasite or virus in culture", "details": "agar dilution, 37° C., sodium salt"}, "[3]": {"tested_on": "Eubacterium aerofaciens 1235", "test": "Agar dilution susceptibility of anaerobic bacteria (Chart 1)", "details": "agar dilution, 37° C.; Eubacterium aerofaciens 1235; sodium salt"}, "[4]": {"tested_on": "Peptococcus asaccharolyticus 1302", "test": "Agar dilution susceptibility of anaerobic bacteria (Chart 1)", "details": "agar dilution, 37° C.; Peptococcus asaccharolyticus 1302; sodium salt"}, "[5]": {"tested_on": "Peptococcus prevoti 1281", "test": "Agar dilution susceptibility of anaerobic bacteria (Chart 1)", "details": "agar dilution, 37° C., sodium salt"}, "[6]": {"tested_on": "Peptostreptococcus anaerobius 1428", "test": "Agar dilution susceptibility of anaerobic bacteria (Chart 1)", "details": "agar dilution, 37° C.; Peptostreptococcus anaerobius 1428; sodium salt"}, "[7]": {"tested_on": "Propionibacterium acnes 79", "test": "Agar dilution susceptibility of anaerobic bacteria (Chart 1)", "details": "Cutibacterium acnes, 79, 24 h, read-out: 24 Hr. MIC"}, "[8]": {"tested_on": "Bacteroides fragilis sp. fragilis 1936B", "test": "Agar dilution susceptibility of anaerobic bacteria (Chart 1)", "details": "agar dilution, 37° C.; Bacteroides fragilis sp. fragilis 1936B; sodium salt"}, "[9]": {"tested_on": "Bacteroides melaninogenicus 1856/28", "test": "Agar dilution susceptibility of anaerobic bacteria (Chart 1)", "details": "agar dilution, 37° C.; Bacteroides melaninogenicus 1856/28; sodium salt"}, "[10]": {"tested_on": "Bacteroides melaninogenicus 2736", "test": "Agar dilution susceptibility of anaerobic bacteria (Chart 1)", "details": "agar dilution, 37° C.; Bacteroides melaninogenicus 2736; sodium salt"}, "[11]": {"tested_on": "Bacteroides vulgatis 1211", "test": "Agar dilution susceptibility of anaerobic bacteria (Chart 1)", "details": "agar dilution, 37° C.; Bacteroides vulgatis 1211; sodium salt"}, "[12]": {"tested_on": "Bacteroides corrodens 1874", "test": "Agar dilution susceptibility of anaerobic bacteria (Chart 1)", "details": "agar dilution, 37° C.; Bacteroides corrodens 1874; sodium salt"}, "[13]": {"tested_on": "Fusobacterium symbiosum 1470", "test": "Agar dilution susceptibility of anaerobic bacteria (Chart 1)", "details": "agar dilution, 37° C.; Fusobacterium symbiosum 1470; sodium salt"}, "[14]": {"tested_on": "Fusobacterium necrophorum 6054A", "test": "Agar dilution susceptibility of anaerobic bacteria (Chart 1)", "details": "agar dilution, 37° C.; Fusobacterium necrophorum 6054A; sodium salt"}}, "note": "Where a name gives a salt, the structure may show the parent alone."}
{"molecule": "Cn1nc(-c2ncc([N+](=O)[O-])n2C)c(C#N)c1NC(=O)C(=O)NN", "note": "[Example 8, 5-[4-Cyano-1-methyl-3-(1-methyl-5-nitroimidazol-2-yl)pyrazol-5-yl]semioxamazide, sodium salt]", "values": [{"measurement": "MIC", "setting": "[1]", "result": "> 128", "unit": "mg/L"}, {"measurement": "24 Hr. MIC", "setting": "[2]", "result": 2, "unit": "mg/L"}, {"measurement": "24 Hr. MIC", "setting": "[3]", "result": 4, "unit": "mg/L"}, {"measurement": "24 Hr. MIC", "setting": "[4]", "result": 1.0, "unit": "mg/L"}, {"measurement": "24 Hr. MIC", "setting": "[5]", "result": 32, "unit": "mg/L"}, {"measurement": "24 Hr. MIC", "setting": "[6]", "result": 0.5, "unit": "mg/L"}, {"measurement": "MIC", "setting": "[7]", "result": "> 128", "unit": "mg/L"}, {"measurement": "24 Hr. MIC", "setting": "[8]", "result": 1.0, "unit": "mg/L"}, {"measurement": "24 Hr. MIC", "setting": "[9]", "result": 16, "unit": "mg/L"}, {"measurement": "24 Hr. MIC", "setting": "[10]", "result": 0.5, "unit": "mg/L"}, {"measurement": "24 Hr. MIC", "setting": "[11]", "result": 1.0, "unit": "mg/L"}, {"measurement": "24 Hr. MIC", "setting": "[12]", "result": 1.0, "unit": "mg/L"}, {"measurement": "24 Hr. MIC", "setting": "[13]", "result": 0.5, "unit": "mg/L"}, {"measurement": "24 Hr. MIC", "setting": "[14]", "result": 0.5, "unit": "mg/L"}]}
